Test results as given in publication PMC9845330 (Communications Biology, 2023).
“Also recorded” adds a separate entry of the source. Non-standard residues stand in square brackets, D forms with d. Residues, ends and D or L forms follow the SMILES beside them. *: point of attachment. X1 = O=C(CCCC[C@@H]1SC[C@@H]2NC(=O)N[C@@H]21)NCCCOCCOCCOCCCN*; PEG12 = NCCOCCOCCOCCOCCOCCOCCOCCOCCOCCOCCOCCOCCC(=O)O

Tested on: subcutaneous H2009 tumors
Assay: Tumor homing by near infrared imaging
Format: in vivo, mouse
Details: for Total Radiant Efficiency: Mean
Description: Use of MGS4 as a delivery agent relies on its ability to target a tumor in an animal. MGS4_V8 and MGS4_V6 (control) were conjugated directly to Alexa Fluor 750. Each conjugate was injected intravenously into immunocompromised mice bearing subcutaneous H2009 tumors, and accumulation of the peptide was measured by near infrared imaging (Fig. 5a). MGS4_V8 tumor homing is observed at 12 h and 85% of that signal is maintained at 24 h. MGS4_V8 signal remains at 48 and 72 h, indicating persistent retention of the dye in the tumor. At all times, MGS4_V8 has 25-40-fold increased signal compared to the control peptide. […] Tumors were fixed in paraformaldehyde followed by whole tumor imaging on a LI-COR® Odyssey (Fig. 5b). A clear visual difference exists between tumors isolated from mice treated with MGS4_V8 compared to those treated with MGS4_V6 control or untreated. Quantification of fluorescence results in a 240-fold higher signal in the MGS4_V8 treated tumors compared to the MGS4_V6 group. Similar results were obtained when subcutaneous H1299 tumors were established in mice (Supplemental Fig. 5).
Fig. 5 MGS4_V8 homes to xenograft tumor after systemic delivery and can deliver saporin resulting in reduced tumor growth. a H2009 tumor bearing nude mice (N = 4) were injected I.V. with MGS4_V8 or MGS4_V6 conjugated to NIR dye Alexa Fluor 750. At 12, 24, 48, and 72 h postinjection, mice were anesthetized and imaged on an IVIS® (Perkin Elmer) to measure total radiant efficiency in each tumor. MGS4_V8 accumulates in tumor 25–39 fold better than control peptide, MGS4_V6. […] Ex vivo NIR imaging of the tumors at the end of the experiment mirrors the data observed in the living animals. […] Data for individual animals is included in Supplementary Table 8. b Excised tumors from the previous experiment were fixed in PBS + 4% formaldehyde and then imaged again together on a LI-COR® Odyssey. Arbitrary fluorescence units (AFU) were determined for each tumor and the average and SEM are shown below the image. The mean fluorescent intensity is 240-fold greater for MGS4_V8-Alexa Fluor 750 conjugate than the MGS4_V6 control conjugate. c Saporin was conjugated to either targeting MGS4_V8 or nontargeting MGS4_V6 and 7.5 µg of the conjugate was injected I.V. into mice bearing subcutaneous tumors. Animals were dosed 2 times per week for 2.5 weeks (indicated by arrows). Tumors were measured every other day. MGS4_V8-saporin clearly slows tumor growth, while nontargeted saporin has no effect compared to untreated animals. Error bars represent SEM, *p-value < 0.05, **p-value < 0.01, ***p-value < 0.001, ****p-value < 0.0001 (two-way ANOVA). d Tumor size (mm3) are shown for individual animals at days 0, 6, 12, and 18. Mean value is represented by the horizontal line and the error bars represent standard error. There is no statistical difference between MGS4_V6-Saporin and untreated at any day. At days 12 and 18 MGS4_V8-Saporin is statistically different than untreated (p-values 0.0099 and 0.0029, respectively) and MGS4_V6-Saporin (p-values 0.0069 and 0.0009, respectively). TEXT PRINTED IN THE PICTURE: (b) MGS4_V8: AFU: 3.3e6 ± 1.1e5; 240-fold | (b) MGS4_V6: AFU: 1.2e4 ± 2.7e3 DOUBTS OF THE COPYIST ABOUT THIS PICTURE: Panel b, 240-fold: printed under a line spanning MGS4_V8 and MGS4_V6; assigned to MGS4_V8 / Panel b, Untreated column (AFU: 1.6e3 ± 4.3e2) left out because it is a control without a substance
Animal experiments were approved by SRI International’s Institutional Animal Care and Use committee (Animal Welfare Assurance Number A3025-01, protocol 14008). H2009 cells (10^6) or H1299 cells (10^6) were implanted subcutaneously on the flank of female Nu/Nu mice (Jackson Laboratory, Bar Harbor, ME). When tumors reached 100 mm^3, in vivo experiments were initiated. For imaging, the indicated peptides were conjugated directly to Alexa Fluor 750 near-infrared dye (Supplemental Fig. 1). Four animals per group were used. […]

Molecule | Total Radiant Efficiency (12 h) | tumor signal maintained relative to 12 h (24 h, Alexa Fluor 750 conjugate i.v.) | Total Radiant Efficiency (24 h) | Total Radiant Efficiency (48 h) | Total Radiant Efficiency (72 h (first line)) | Total Radiant Efficiency (72 h (second line)) | fold fluorescence versus MGS4_V6 group (excised fixed tumors, 72 h, LI-COR Odyssey) | tumor signal versus untreated tumors (Alexa Fluor 750 conjugate)
CC(=O)N[C@@H](Cc1ccccc1)C(=O)N[C@@H](Cc1c[nH]cn1)C(=O)N[C@@H](C)C(=O)N[C@H](C(=O)N1CCC[C@H]1C(=O)N[C@@H](CCC(N)=O)C(=O)N[C@@H](CO)C(=O)N[C@@H](Cc1ccccc1)C(=O)N[C@@H](Cc1ccc(O)cc1)C(=O)N[C@H](C(=O)NCCOCCOCCOCCOCCOCCOCCOCCOCCOCCOCCOCCOCCC(=O)N[C@@H](CCC(=O)NCCCOCCOCCOCCCNC(=O)CCCC[C@@H]1SC[C@@H]2NC(=O)N[C@@H]21)C(N)=O)[C@@H](C)O)C(C)C [MGS4_V8] (Ac-FHAVPQSFYT[PEG12]E(X1)-NH2) | 1.58e+010 | 85% | 1.33e+010 | 7.91e+009 | 7.00e+009 | 2.02e+010 | 240 fold | –
*HAVPQSFYT** [MGS4_V6] | 3.94e+008 | – | 3.44e+008 | 2.64e+008 | 2.80e+008 | 2.00e+009 | – | no statistically significant difference; also recorded: statistically no different than untreated tumors
